23 compounds from ChEMBL document CHEMBL1201862, “PubChem BioAssay data set” (2004) can be followed below.

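Briefly, cells in 96-well plates were exposed to five compound concentrations for 48 h, and endpoints were estimated by linear interpolation. GI50: concentration for 50% inhibition of growth.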 Active and inactive are the calls of the source. No stated cut-off is given here; in the data, active = GI50 up to about 1.1 µM and inactive = higher.

Test systems include KM-20L2; DMS-273; RXF 631; HOP-18; LXFL 529; SNB-78; BT-549; DMS-114; DLD-1.
What all share (assay): NCI tumour cell line growth inhibition, 48 h

Turning to `N#Cc1cccc(N2C(=O)C3C4C=CC(C3C2=O)C2C(=O)N(c3cccc(C#N)c3)C(=O)C42)c1` (configuration not stated), the GI50 in the assay on KM-20L2 is > 100 µM (inactive); with DMS-273, 15.2 µM (inactive); in the assay with RXF 631 it was 24.7 µM (inactive); with HOP-18, > 65.2 µM (inactive); in the assay on LXFL 529, > 46.5 µM (inactive); in the assay with SNB-78 it was 12.7 µM (inactive). In addition, the results for the GI50 in the assay on BT-549, in the assay with DMS-114 and with DLD-1 were 17.7 µM (inactive), 16.3 µM (inactive) and > 46.5 µM (inactive), respectively.

On to `COC(=O)[C@@]12OC[C@]34[C@H]([C@@H](O)[C@@H]1O)[C@@]1(C)CC(=O)C(O)=C(C)[C@@H]1C[C@H]3OC(=O)[C@H](OC(=O)/C=C(\C)C(C)C)[C@@H]24` [BRUCEANTIN], for which the GI50 was 0.02 µM (active) in the assay on KM-20L2; 0.000314 µM (active) with RXF 631; 0.0265 µM (active) with HOP-18; 3.5e-05 µM (active) in the assay with LXFL 529; 0.02 µM (active) with SNB-78; 0.02 µM (active) with BT-549. Further, in the assay on DLD-1, the GI50 was 0.02 µM (active).

For `C/C(=C\C(C[C@](C)(O)C(O)CCC#C[Si](C)(C)C)S(=O)(=O)c1ccccc1)CC/C=C/CO[Si](C)(C)C(C)(C)C` (some centres not stated), the GI50 in the assay with KM-20L2 was 8.61 µM (inactive); in the assay with DMS-273, 15.7 µM (inactive); with RXF 631 it was 9.66 µM (inactive); in the assay with SNB-78 it was 16.8 µM (inactive); in the assay with DMS-114, 15.2 µM (inactive); in the assay on DLD-1, 23.6 µM (inactive).

Regarding `CC(Oc1ccc2c(-c3ccc(Cl)cc3)cc(=O)oc2c1)C(=O)O` (configuration not stated), the GI50 in the assay with KM-20L2, with RXF 631, in the assay with HOP-18, in the assay on LXFL 529, in the assay with SNB-78 and with DLD-1 was > 100 µM (inactive) throughout.

Turning to `O=C(CC1C(=O)Nc2ccccc2S1(=O)=O)Nc1cc(Cl)ccc1Cl` (configuration not stated), the GI50 with KM-20L2 was 15.6 µM (inactive); in the assay with RXF 631, 28.4 µM (inactive); with LXFL 529, 14.1 µM (inactive); with SNB-78 it was 12.7 µM (inactive); in the assay on DMS-114, 12.5 µM (inactive); in the assay with DLD-1 it was 15 µM (inactive).

Regarding `C=C(C)C(=O)/N=C(\N)NC#N`, the GI50 in the assay with KM-20L2 is 105 µM (inactive); in the assay with DMS-273, 44 µM (inactive); in the assay on RXF 631, > 100 µM (inactive); in the assay on HOP-18, > 41.8 µM (inactive); in the assay on LXFL 529, 63.4 µM (inactive); in the assay on SNB-78 it was 48.3 µM (inactive). Further, the GI50 with BT-549 is 14.8 µM (inactive); in the assay on DMS-114 it was 30.5 µM (inactive); with DLD-1, 68.9 µM (inactive).

Turning to `C=C(C)CC(C)(c1cc2ccccc2n1C)N1CCOCC1` (configuration not stated), the GI50 in the assay with KM-20L2 is > 100 µM (inactive); with DMS-273, 61 µM (inactive); in the assay on RXF 631, 42.4 µM (inactive); in the assay on HOP-18, > 100 µM (inactive); with LXFL 529, 53.7 µM (inactive); in the assay on DLD-1, 60.5 µM (inactive).

Turning to `Cc1cc(C)c(-c2noc(-c3ccc(Cl)cc3)c2C2=NCCCN2)c(C)c1`, the GI50 is 21.9 µM (inactive) in the assay with KM-20L2; 25.1 µM (inactive) in the assay with RXF 631; 27.9 µM (inactive) in the assay on HOP-18; 32.2 µM (inactive) in the assay on LXFL 529; 14.8 µM (inactive) in the assay with SNB-78; 35.8 µM (inactive) in the assay with DLD-1.

Take `[O-][n+]1c(-c2ccccc2)oc2ccccc21`: the GI50 was 21.1 µM (inactive) with KM-20L2; 12.6 µM (inactive) in the assay with DMS-273; 47 µM (inactive) with RXF 631; 6.44 µM (inactive) in the assay on HOP-18; 9.04 µM (inactive) in the assay on LXFL 529; 41.4 µM (inactive) in the assay on SNB-78. Moreover, the GI50 in the assay with DMS-114 was 3.48 µM (inactive); in the assay on DLD-1 it was 7.82 µM (inactive).

As to `CC(=O)Nc1ccccc1S(=O)(=O)c1ccccc1`, the GI50 in the assay on KM-20L2, in the assay on DMS-273, in the assay on RXF 631, with HOP-18, in the assay with LXFL 529 and in the assay with SNB-78 was > 100 µM (inactive) each time. Also, the GI50 with DMS-114 and in the assay on DLD-1 was > 100 µM (inactive) each time.

On to `CC(C)(C)N/N=C(\C(=O)Nc1cccc(Cl)c1)C1C(=O)Nc2ccccc2[S+]1[O-]` (configuration not stated), for which the GI50 in the assay on KM-20L2, in the assay on DMS-273, in the assay on RXF 631, in the assay on HOP-18, with LXFL 529 and with DMS-114 was > 100 µM (inactive) throughout. For the same compound, the GI50 in the assay on DLD-1 was > 100 µM (inactive).

For `[O-][S+]1c2ccccc2N=C(c2ccc3ccccc3c2)CC1C1=CC=CCC1` (configuration not stated), the GI50 in the assay with KM-20L2 was 19.5 µM (inactive); in the assay on DMS-273, 19.2 µM (inactive); in the assay with RXF 631 it was 17.2 µM (inactive); in the assay with HOP-18, 35.8 µM (inactive); with LXFL 529, 14.8 µM (inactive); in the assay with DMS-114 it was 15.2 µM (inactive). Moreover, in the assay on DLD-1, the GI50 was 12.9 µM (inactive).

As to `CCN(CC)CCNc1ccc2ncn3c4cc(O)ccc4c(=O)c1c23`, the GI50 with KM-20L2 was 3.7 µM (inactive); with DMS-273 it was 2.77 µM (inactive); in the assay with RXF 631, 2.1 µM (inactive); in the assay with LXFL 529, 2.56 µM (inactive); with SNB-78, 5.35 µM (inactive); in the assay on DMS-114 it was 4.29 µM (inactive). Moreover, the GI50 with DLD-1 was 3.76 µM (inactive).

As for `Fc1ccc2c(c1)cc1ccc3cccc4ccc2c1c34`, the GI50 in the assay on KM-20L2, in the assay on DMS-273, in the assay on RXF 631, in the assay with HOP-18, with LXFL 529 and in the assay on SNB-78 was > 100 µM (inactive) each time. Also, the GI50 in the assay on DMS-114 and with DLD-1 was > 100 µM (inactive) each time.

For the compound `CSC[S+]([O-])C[C@H](CO)NC(=O)/C=C/c1c(C)[nH]c(=O)[nH]c1=O` (some centres not stated), the GI50 with KM-20L2 was 0.979 µM (active); in the assay with DMS-273, 1.43 µM (inactive); in the assay with RXF 631, 2.58 µM (inactive); in the assay with HOP-18, 2.85 µM (inactive); with LXFL 529, 1.96 µM (inactive); in the assay on SNB-78 it was 0.318 µM (active). In addition, the results for the GI50 with DMS-114 and with DLD-1 were 0.757 µM (active) and 1.6 µM (inactive), respectively.

For `CCN(CC)C(=S)SC1CCOP(=O)(N(CCCl)CCCl)N1C` (configuration not stated), the GI50 with KM-20L2 is 38.7 µM (inactive); in the assay on DMS-273, 0.214 µM (active); in the assay on HOP-18 it was > 100 µM (inactive); in the assay on LXFL 529, 0.0372 µM (active); in the assay with SNB-78, 49.2 µM (inactive); with BT-549, > 100 µM (inactive). The GI50 in the assay with DMS-114 is 0.19 µM (active); with DLD-1, 0.126 µM (active).

Turning to `COC(=O)C12CC(C3CC31)C1CC12` (configuration not stated), the GI50 with KM-20L2, in the assay with DMS-273, with RXF 631, in the assay with HOP-18, in the assay with LXFL 529 and with DMS-114 was > 100 µM (inactive) throughout. The GI50 in the assay with DLD-1 was > 100 µM (inactive).

For the compound `O=c1n(-c2ccccc2)c(=O)n2n1C1C=CC2C2C(C1)C2(Cl)Cl` (configuration not stated), the GI50 with KM-20L2, with DMS-273, in the assay on RXF 631, in the assay on LXFL 529, in the assay with SNB-78 and with DMS-114 was > 100 µM (inactive) throughout. Further, the GI50 in the assay on DLD-1 was > 100 µM (inactive).

On to `CN(CC(=O)O)S(=O)(=O)c1ccc2ccccc2c1`, for which the GI50 with KM-20L2, in the assay on DMS-273, with RXF 631, in the assay with HOP-18, in the assay with LXFL 529 and in the assay with DLD-1 was > 100 µM (inactive) in each case.

With `Nc1ccc2c(SCc3ccc([N+](=O)[O-])cc3)c3ccccc3nc2c1`, the GI50 in the assay with KM-20L2 was 16.5 µM (inactive); with DMS-273, 19.9 µM (inactive); in the assay on HOP-18 it was 13.5 µM (inactive); in the assay with LXFL 529, 6.08 µM (inactive); with SNB-78 it was 21.9 µM (inactive); in the assay with BT-549, 17.9 µM (inactive). Also, the GI50 is 15 µM (inactive) in the assay with DMS-114 and 2.39 µM (inactive) with DLD-1.

Consider `COc1ccc2ccc3c(c2c1)CN1CCc2cc(OC)c(OC)cc2C1C3` (configuration not stated), for which the GI50 with KM-20L2 was > 100 µM (inactive); in the assay on DMS-273, > 100 µM (inactive); with RXF 631, > 100 µM (inactive); in the assay on HOP-18, > 100 µM (inactive); with LXFL 529 it was 66.2 µM (inactive); with SNB-78, > 100 µM (inactive). Moreover, the GI50 with DMS-114 and in the assay with DLD-1 was > 100 µM (inactive) in each case.

Regarding `O=c1/c(=C/c2ccccc2[N+](=O)[O-])sc2nnc(-c3cccnc3)n12`, the GI50 in the assay with KM-20L2, in the assay with DMS-273, in the assay with RXF 631, in the assay on HOP-18, in the assay with LXFL 529 and in the assay on SNB-78 was > 100 µM (inactive) in each case. Also, the GI50 in the assay on DMS-114 and in the assay on DLD-1 was > 100 µM (inactive) each time.

For the compound `CCCCCCCCCCCCSC(=S)c1c(C)[nH]n(-c2ccccc2)c1=O`, the GI50 in the assay on KM-20L2 is 10.2 µM (inactive); with RXF 631, 13.2 µM (inactive); in the assay on HOP-18 it was > 50 µM (inactive); with LXFL 529, 9.12 µM (inactive); in the assay on SNB-78 it was 29.8 µM (inactive); in the assay on DMS-114, 6.84 µM (inactive). Besides, in the assay with DLD-1, the GI50 was 2.3 µM (inactive).
